Experimental data reported in patent US20110300110A1, “ENAMINOCARBONYL COMPOUND/BENEFICIAL ORGANISM COMBINATIONS” (BAYER CROPSCIENCE AG, priority 2008, published 2011).

Assays:
Assay type in all cases: in vivo
[1] = test system: Myzus persicae; experiment: Larvae treatment Coccinella: infestation by Myzus persicae on Savoy cabbage; conditions: Coccinella larvae added
Description: (§1) Foliar treatment is carried out using compound (I-5) in a concentration of 75 g of active compound per hectare.
(§2) Drench treatment is carried out using compound (I-5) in a concentration of 10 mg of active compound per plant.
(§3) Foliar treatment with Karate Zeon CS100 as toxic control was carried out in a concentration of 12.5 g of active compound per hectare.
(§4) Beneficial species: Coccinella septempunctata L2 larvae Pest: Myzus persicae
(§5) Each experiment is carried out in 3 repetitions with in each case 2 pot cages with in each case 5 larvae.
(§6) For the experiment, Savoy cabbage plants are grown in pots having a diameter of 14 cm, placed in a breeding cage and infested thoroughly with Myzus persicae. Per experiment, 6 pots having a well-established aphid population are selected and the aphids are rated by estimation of their number. The plants are treated with the active compound solution of the appropriate concentration.
(§7) After the spray coating has dried on, a quartz sand layer of a thickness of about 1 cm is applied to the soil in the pot, and the pot cage is put over the plant. In each case 5 Coccinella larvae are then counted out, and in each case 5 specimen are added to the plants in the pot cage.
(§8) For each plant, at the beginning the Myzus persicae number is estimated at the appropriate points in time and the dead, dying and alive larvae are counted separately. All larvae, i.e. all larvae present on the plant and the surface of the quartz sand base, are counted.

[2] = test system: Myzus persicae; experiment: Larvae treatment Episyrphus: infestation by Myzus persicae on Savoy cabbage; conditions: Episyrphus larvae added
Description: as §1, §2, §3
Beneficial species: Episyrphus balteatus larvae Pest: Myzus persicae
Per experiment, 3 repetitions with in each case 2 pot cages with in each case 5 larvae are carried out.
For the experiment, Savoy cabbage plants are grown in pots having a diameter of 14 cm, placed in a breeding cage and infested thoroughly with Myzus persicae.
After the spray coating has dried on, a quartz sand layer of a thickness of about 1 cm is applied to the soil in the pot, and the pot cage is put over the plant. In each case 5 Episyrphus larvae are then counted out, and in each case 5 specimen are added to the plants in the pot cage.
as §8

[3] = test system: Metopolophium dirhodum; experiment: Treatment Anthocoris adult: infestation by Metopolophium dirhodum on maize; conditions: Anthocoris adults added
Description: as §1, §2, §3
Beneficial species: Anthocoris nemoralis adults Pest: Metopolophium dirhodum
Per experiment, 3 repetitions with in each case 2 pot cages with in each case 5 adults are carried out.
as §6, with “maize” for “Savoy cabbage”, “Metopolophium dirhodum.” for “Myzus persicae.”
After the spray coating has dried on, a quartz sand layer of a thickness of about 1 cm is applied to the soil in the pot, and the pot cage is put over the plant.
In each case 5 Anthocoris adults are then counted out, and in each case 5 specimen are added to the plants in the pot cage.
For each plant, at the beginning the Metopolophium dirhodum number is estimated at the appropriate points in time and the dead, dying and alive adults are counted separately. All adults, i.e. all adults present on the plant and the surface of the quartz sand base, are counted.

[4] = test system: Macrolophus caliginosus nymphs; experiment: Residual test with nymphs of Macrolophus caliginosus on tomato leaves
Description: Foliar treatment is carried out using compound (I-5) in a concentration of 100 g of active compound per hectare.
Drench treatment is carried out using compound (I-5) in a concentration of 15 mg of active compound per plant.
Foliar treatment with Karate Zeon CS100 as toxic control was carried out in a concentration of 12.5 g of active compound per hectare. The active compound in its respective formulation is brought to the required concentration by dilution with water.
Tomato plants cultivated in a greenhouse are treated with the respective active compound solutions. 1, 8, 16 and 23 days after the application, leaves are plucked from the test plants (5 samples per plot). The individual leaves are then mounted in test cages. 10 Macrolophus caliginosus nymphs are added to each cage. The test cages are placed under controlled conditions in a climatized chamber. The kill of the insects/larvae is determined after 24, 48 and 72 hours of exposure.

[5] = test system: Coccinella septempunctata L2 larvae; experiment: Larvae treatment Coccinella: kill of beneficial species larvae on Savoy cabbage
Description: as §1, §2, §3, §4, §5, §6, §7, §8

[6] = 5 days after application, drench 10 mg a.i./plant
[7] = 5 days after application, foliar: (I-5) 75 g a.i./ha, Karate Zeon CS100 12.5 g a.i./ha
[8] = prior to application (baseline), drench 10 mg a.i./plant
[9] = prior to application (baseline), foliar: (I-5) 75 g a.i./ha, Karate Zeon CS100 12.5 g a.i./ha

O=C1C=C(N(Cc2ccc(Cl)nc2)CC(F)F)CO1 [compound (I-5), 4-{[(6-chloropyrid-3-yl)methyl](2,2-difluoroethyl)amino}furan-2(5H)-one]
Infestation by Myzus persicae (number per plant) [1, 6]: 165 number per plant
Infestation by Myzus persicae (number per plant) [1, 7]: 0 number per plant
Infestation by Myzus persicae (number per plant) [1, 8]: 552 number per plant
Infestation by Myzus persicae (number per plant) [1, 9]: 602 number per plant
Infestation by Myzus persicae (number per plant) [2, 6]: 23 number per plant
Infestation by Myzus persicae (number per plant) [2, 7]: 0 number per plant
Infestation by Myzus persicae (number per plant) [2, 8]: 394 number per plant
Infestation by Myzus persicae (number per plant) [2, 9]: 375 number per plant
Infestation by Metopolophium dirhodum (number per plant) [3, 6]: 2.5 number per plant
Infestation by Metopolophium dirhodum (number per plant) [3, 7]: 0 number per plant
Infestation by Metopolophium dirhodum (number per plant) ([3]; drench 10 mg a.i./plant): 85 number per plant
Infestation by Metopolophium dirhodum (number per plant) ([3]; foliar: (I-5) 75 g a.i./ha, Karate Zeon CS100 12.5 g a.i./ha): 78 number per plant
Activity against nymphs of Macrolophus caliginosus on tomato [% kill according to Schneider-Orelli] ([4]; leaves plucked 1 day after application, drench 15 mg a.i./plant): 0%
Activity against nymphs of Macrolophus caliginosus on tomato [% kill according to Schneider-Orelli] ([4]; leaves plucked 1 day after application, foliar: (I-5) 100 g a.i./ha, Karate Zeon CS100 12.5 g a.i./ha): 52.2%
Activity against nymphs of Macrolophus caliginosus on tomato [% kill according to Schneider-Orelli] ([4]; leaves plucked 8 days after application, drench 15 mg a.i./plant): 65.4%
Activity against nymphs of Macrolophus caliginosus on tomato [% kill according to Schneider-Orelli] ([4]; leaves plucked 8 days after application, foliar: (I-5) 100 g a.i./ha, Karate Zeon CS100 12.5 g a.i./ha): 72.2%
Activity against nymphs of Macrolophus caliginosus on tomato [% kill according to Schneider-Orelli] ([4]; leaves plucked 16 days after application, drench 15 mg a.i./plant): 35.7%
Activity against nymphs of Macrolophus caliginosus on tomato [% kill according to Schneider-Orelli] ([4]; leaves plucked 16 days after application, foliar: (I-5) 100 g a.i./ha, Karate Zeon CS100 12.5 g a.i./ha): 21.7%
Activity against nymphs of Macrolophus caliginosus on tomato [% kill according to Schneider-Orelli] ([4]; leaves plucked 23 days after application, drench 15 mg a.i./plant): 23.6%
Activity against nymphs of Macrolophus caliginosus on tomato [% kill according to Schneider-Orelli] ([4]; leaves plucked 23 days after application, foliar: (I-5) 100 g a.i./ha, Karate Zeon CS100 12.5 g a.i./ha): 41.8%
kill of Coccinella septempunctata larvae [% Abbott] ([5]; 0 days after application, drench 10 mg a.i./plant): 0%
kill of Coccinella septempunctata larvae [% Abbott] ([5]; 0 days after application, foliar: (I-5) 75 g a.i./ha, Karate Zeon CS100 12.5 g a.i./ha): 0%
kill of Coccinella septempunctata larvae [% Abbott] ([5]; 1 day after application, drench 10 mg a.i./plant): 1.7%
kill of Coccinella septempunctata larvae [% Abbott] ([5]; 1 day after application, foliar: (I-5) 75 g a.i./ha, Karate Zeon CS100 12.5 g a.i./ha): 3.3%
kill of Coccinella septempunctata larvae [% Abbott] ([5]; 3 days after application, drench 10 mg a.i./plant): 1.7%
kill of Coccinella septempunctata larvae [% Abbott] ([5]; 3 days after application, foliar: (I-5) 75 g a.i./ha, Karate Zeon CS100 12.5 g a.i./ha): 1.7%
kill of Coccinella septempunctata larvae [% Abbott] [5, 6]: 3.4%
kill of Coccinella septempunctata larvae [% Abbott] [5, 7]: 6.9%
